{"source": "patent US20060069132A1", "about": "“Azolecarboxamide herbicides” (priority 2004, published 2006)", "assay_in_all_cases": "Test C postemergence herbicide test", "key": {"chickweed": {"tested_on": "chickweed", "type": "in vivo, Stellaria media", "conditions": "for Chickweed plant response rating: 500 g ai/ha", "description": "At the same time, plants selected from these crop and weed species and also winter barley (Hordeum vulgare L.), blackgrass (Alopecurus myosuroides Huds.), canarygrass (Phalaris minor Retz.), chickweed (Stellaria media (L.) Vill.), downy bromegrass (Bromus tectorum L.), green foxtail (Setaria viridis (L.) Beauv.), Italian ryegrass (Lolium multiflorum Lam.), wheat (Triticum aestivum L.), wild oat (Avenafatua L.) and windgrass (Apera spica-venti (L.) Beauv.) were treated with postemergence applications of some of the test chemicals formulated in the same manner. Plants ranged in height from 2 to 18 cm (1- to 4-leaf stage) for postemergence treatments. Plant species in the flooded paddy test consisted of rice (Oryza sativa), smallflower umbrella sedge (Cyperus difformis L.), ducksalad (Heteranthera limosa (Sw.) Willd.) and barnyardgrass (Echinochloa crus-galli (L.) Beauv.) grown to the 2-leaf stage for testing. Treated plants and controls were maintained in a greenhouse for 12 to 14 days, after which time all species were compared to controls and visually evaluated. Plant response ratings, summarized in Table C, are based on a scale of 0 to 100 where 0 is no effect and 100 is complete control. A dash (-) response means no test result."}, "canarygrass": {"tested_on": "canarygrass", "type": "in vivo, Phalaris minor", "method_in_brief": "(§1)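 Greenhouse test with a 12–14 day hold after application and visual comparison with controls. Emerged plants were 1- to 4-leaf stage (2–18 cm) when sprayed postemergence, and the paddy barnyardgrass was at 2 leaves under flooded conditions. 100 = complete control.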"}, "wild oat": {"tested_on": "wild oat", "type": "in vivo, Avenafatua", "method_in_brief": "as §1"}, "windgrass": {"tested_on": "windgrass", "type": "in vivo, Apera spica-venti", "method_in_brief": "as §1"}, "winter barley": {"tested_on": "winter barley", "type": "in vivo, Hordeum vulgare", "conditions": "for Barley, Winter plant response rating: 500 g ai/ha, scale 0 to 100", "method_in_brief": "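Postemergence sprays applied to plants 2 to 18 cm tall (1- to 4-leaf stage); paddy species grown to 2-leaf stage under flooding. After 12 to 14 days in greenhouse, visual rating versus untreated controls on 0–100 scale (0 no effect, 100 complete control).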"}, "downy bromegrass": {"tested_on": "downy bromegrass", "type": "in vivo, Bromus tectorum", "method_in_brief": "as §1"}, "wheat": {"tested_on": "wheat", "type": "in vivo, Triticum aestivum", "method_in_brief": "as §1"}, "green foxtail": {"tested_on": "green foxtail", "type": "in vivo, Setaria viridis", "method_in_brief": "as §1"}, "Italian ryegrass": {"tested_on": "Italian ryegrass", "type": "in vivo, Lolium multiflorum", "method_in_brief": "as §1"}, "[1]": {"conditions": "Postemergence, 250 g ai/ha, scale 0 to 100, 0 no effect, 100 complete control"}, "[2]": {"conditions": "postemergence, 125 g ai/ha, scale 0 to 100"}, "[3]": {"conditions": "postemergence, 31 g ai/ha, scale 0 to 100"}, "[4]": {"conditions": "postemergence, 62 g ai/ha, scale 0 to 100"}, "[5]": {"conditions": "Postemergence, 500 g ai/ha, scale 0 to 100"}, "[6]": {"conditions": "postemergence, 125 g ai/ha, scale 0 to 100 (0 no effect, 100 complete control)"}, "[7]": {"conditions": "postemergence, 62 g ai/ha, scale 0 to 100 (0 no effect, 100 complete control)"}, "[8]": {"conditions": "Postemergence, 500 g ai/ha, scale 0 to 100, 0 no effect, 100 complete control"}}, "data": [{"molecule": "CCn1nc(C(C)(C)C)cc1C(=O)Nc1ccc(F)c(C(=O)NCCF)c1", "note": "[Compound 60]", "values": [{"measurement": "Plant response rating, Chickweed", "setting": "chickweed; [1]", "value": 10}, {"measurement": "Plant response rating, Chickweed", "setting": "chickweed; [2]", "value": 10}, {"measurement": "Plant response rating, Chickweed", "setting": "chickweed; [3]", "value": 5}, {"measurement": "Plant response rating, Chickweed", "setting": "chickweed; [4]", "value": 5}]}, {"molecule": "CCn1nc(C(C)(C)C)cc1C(=O)Nc1cccc(C(=O)OC)c1", "note": "[Compound 81]", "values": [{"measurement": "Plant response rating, Chickweed", "setting": "chickweed; [1]", "value": 100}, {"measurement": "Plant response rating, Chickweed", "setting": "chickweed; [2]", "value": 95}, {"measurement": "Plant response rating, Chickweed", "setting": "chickweed; [3]", "value": 90}, {"measurement": "Plant response rating, Chickweed", "setting": "chickweed; [4]", "value": 95}]}, {"molecule": "C#CCOC(=O)c1cccc(NC(=O)c2cc(C(C)(C)C)nn2CC)c1", "note": "[Compound 84]", "values": [{"measurement": "Chickweed plant response rating", "setting": "chickweed; Postemergence, scale 0 to 100", "value": 70}, {"measurement": "Plant response rating, Chickweed", "setting": "chickweed; [1]", "value": 70}, {"measurement": "Plant response rating, Chickweed", "setting": "chickweed; [2]", "value": 50}, {"measurement": "Plant response rating, Chickweed", "setting": "chickweed; [4]", "value": 0}]}, {"molecule": "C=CCOC(=O)c1cccc(NC(=O)c2cc(C(C)(C)C)nn2CC)c1", "note": "[Compound 85]", "values": [{"measurement": "Chickweed plant response rating", "setting": "chickweed; Postemergence, scale 0 to 100", "value": 100}, {"measurement": "Plant response rating, Chickweed", "setting": "chickweed; [1]", "value": 100}, {"measurement": "Plant response rating, Chickweed", "setting": "chickweed; [2]", "value": 100}, {"measurement": "Plant response rating, Chickweed", "setting": "chickweed; [4]", "value": 100}]}, {"molecule": "CC(=NO)c1cccc(NC(=O)c2cc(C(C)(C)C)nn2CC(F)(F)F)c1", "note": "[Compound 112]", "values": [{"measurement": "Chickweed plant response rating", "setting": "chickweed; Postemergence, scale 0 to 100", "value": 100}, {"measurement": "Plant response rating, Chickweed", "setting": "chickweed; [1]", "value": 100}, {"measurement": "Plant response rating, Chickweed", "setting": "chickweed; [2]", "value": 10}, {"measurement": "Plant response rating, Chickweed", "setting": "chickweed; [4]", "value": 0}]}, {"molecule": "CCn1nc(C(C)(C)C)cc1C(=O)Nc1cccc(C#N)c1", "note": "[Compound 139]", "values": [{"measurement": "Plant response rating, Chickweed", "setting": "chickweed; [1]", "value": 80}, {"measurement": "Plant response rating, Chickweed", "setting": "chickweed; [2]", "value": 70}, {"measurement": "Plant response rating, Chickweed", "setting": "chickweed; [3]", "value": 0}, {"measurement": "Plant response rating, Chickweed", "setting": "chickweed; [4]", "value": 0}]}, {"molecule": "CCn1nc(C(C)(C)C)cc1C(=O)Nc1cccc(C(=O)NC2CC2)n1", "note": "[Compound 146]", "values": [{"measurement": "Plant response rating, Chickweed", "setting": "chickweed; [1]", "value": 100}, {"measurement": "Plant response rating, Chickweed", "setting": "chickweed; [2]", "value": 80}, {"measurement": "Plant response rating, Chickweed", "setting": "chickweed; [4]", "value": 10}]}, {"molecule": "CCn1nc(C(C)(C)C)cc1C(=O)Nc1cccc(OC(F)(F)F)c1", "note": "[Compound 272]", "values": [{"measurement": "Canarygrass plant response rating", "setting": "canarygrass; [5]", "value": 55}, {"measurement": "Plant response rating, Canarygrass", "setting": "canarygrass; [1]", "value": 40}, {"measurement": "Plant response rating, Canarygrass", "setting": "canarygrass; [2]", "value": 35}, {"measurement": "Plant response rating, Canarygrass", "setting": "canarygrass; [4]", "value": 35}, {"measurement": "Oat, Wild plant response rating", "setting": "wild oat; [5]", "value": 65}, {"measurement": "Plant response rating, Oat, Wild", "setting": "wild oat; [1]", "value": 55}, {"measurement": "Plant response rating, Oat, Wild", "setting": "wild oat; [2]", "value": 45}, {"measurement": "Plant response rating, Oat, Wild", "setting": "wild oat; [4]", "value": 40}, {"measurement": "Chickweed plant response rating", "setting": "chickweed; Postemergence, scale 0 to 100", "value": 100}, {"measurement": "Plant response rating, Chickweed", "setting": "chickweed; [1]", "value": 100}, {"measurement": "Plant response rating, Chickweed", "setting": "chickweed; [2]", "value": 100}, {"measurement": "Plant response rating, Chickweed", "setting": "chickweed; [4]", "value": 95}, {"measurement": "Windgrass plant response rating", "setting": "windgrass; [5]", "value": 85}, {"measurement": "Plant response rating, Windgrass", "setting": "windgrass; [2]", "value": 70}, {"measurement": "Plant response rating, Windgrass", "setting": "windgrass; [4]", "value": 60}, {"measurement": "Barley, Winter plant response rating", "setting": "winter barley; Postemergence", "value": 35}, {"measurement": "Plant response rating, Barley, Winter", "setting": "winter barley; [1]", "value": 35}, {"measurement": "Plant response rating, Barley, Winter", "setting": "winter barley; [6]", "value": 35}, {"measurement": "Plant response rating, Barley, Winter", "setting": "winter barley; [7]", "value": 35}, {"measurement": "Bromegrass, Downy plant response rating", "setting": "downy bromegrass; [5]", "value": 65}, {"measurement": "Plant response rating, Bromegrass, Downy", "setting": "downy bromegrass; [1]", "value": 60}, {"measurement": "Plant response rating, Bromegrass, Downy", "setting": "downy bromegrass; [2]", "value": 55}, {"measurement": "Plant response rating, Bromegrass, Downy", "setting": "downy bromegrass; [4]", "value": 30}, {"measurement": "Wheat plant response rating", "setting": "wheat; [5]", "value": 35}, {"measurement": "Plant response rating, Wheat", "setting": "wheat; [1]", "value": 35}, {"measurement": "Plant response rating, Wheat", "setting": "wheat; [2]", "value": 35}, {"measurement": "Plant response rating, Wheat", "setting": "wheat; [4]", "value": 30}, {"measurement": "Foxtail, Green plant response rating", "setting": "green foxtail; [5]", "value": 60}, {"measurement": "Plant response rating, Foxtail, Green", "setting": "green foxtail; [1]", "value": 45}, {"measurement": "Plant response rating, Foxtail, Green", "setting": "green foxtail; [2]", "value": 40}, {"measurement": "Plant response rating, Foxtail, Green", "setting": "green foxtail; [4]", "value": 35}, {"measurement": "Ryegrass, Italian plant response rating", "setting": "Italian ryegrass; [5]", "value": 60}, {"measurement": "Plant response rating, Ryegrass, Italian", "setting": "Italian ryegrass; [1]", "value": 45}, {"measurement": "Plant response rating, Ryegrass, Italian", "setting": "Italian ryegrass; [2]", "value": 45}, {"measurement": "Plant response rating, Ryegrass, Italian", "setting": "Italian ryegrass; [4]", "value": 30}]}, {"molecule": "CCc1nn(C(C)(C)C)nc1C(=O)Nc1cccc(C(=O)NC2CC2)c1", "note": "[Compound 417]", "values": [{"measurement": "Plant response rating, Canarygrass", "setting": "canarygrass; [1]", "value": 45}, {"measurement": "Plant response rating, Canarygrass", "setting": "canarygrass; [8]", "value": 55}, {"measurement": "Plant response rating, Canarygrass", "setting": "canarygrass; [2]", "value": 40}, {"measurement": "Plant response rating, Canarygrass", "setting": "canarygrass; [4]", "value": 30}, {"measurement": "Plant response rating, Oat, Wild", "setting": "wild oat; [8]", "value": 60}, {"measurement": "Plant response rating, Oat, Wild", "setting": "wild oat; [2]", "value": 40}, {"measurement": "Plant response rating, Oat, Wild", "setting": "wild oat; [4]", "value": 35}, {"measurement": "Plant response rating, Windgrass", "setting": "windgrass; [8]", "value": 55}, {"measurement": "Plant response rating, Windgrass", "setting": "windgrass; [2]", "value": 40}, {"measurement": "Plant response rating, Windgrass", "setting": "windgrass; [4]", "value": 40}, {"measurement": "Barley, Winter plant response rating", "setting": "winter barley; Postemergence", "value": 35}, {"measurement": "Plant response rating, Barley, Winter", "setting": "winter barley; [1]", "value": 30}, {"measurement": "Plant response rating, Barley, Winter", "setting": "winter barley; [6]", "value": 20}, {"measurement": "Plant response rating, Barley, Winter", "setting": "winter barley; [7]", "value": 20}, {"measurement": "Plant response rating, Bromegrass, Downy", "setting": "downy bromegrass; [1]", "value": 50}, {"measurement": "Plant response rating, Bromegrass, Downy", "setting": "downy bromegrass; [8]", "value": 65}, {"measurement": "Plant response rating, Bromegrass, Downy", "setting": "downy bromegrass; [2]", "value": 40}, {"measurement": "Plant response rating, Bromegrass, Downy", "setting": "downy bromegrass; [4]", "value": 35}, {"measurement": "Plant response rating, Wheat", "setting": "wheat; [8]", "value": 35}, {"measurement": "Plant response rating, Wheat", "setting": "wheat; [2]", "value": 20}, {"measurement": "Plant response rating, Wheat", "setting": "wheat; [4]", "value": 20}, {"measurement": "Plant response rating, Foxtail, Green", "setting": "green foxtail; [1]", "value": 60}, {"measurement": "Plant response rating, Foxtail, Green", "setting": "green foxtail; [8]", "value": 65}, {"measurement": "Plant response rating, Foxtail, Green", "setting": "green foxtail; [2]", "value": 55}, {"measurement": "Plant response rating, Foxtail, Green", "setting": "green foxtail; [4]", "value": 50}, {"measurement": "Plant response rating, Ryegrass, Italian", "setting": "Italian ryegrass; [8]", "value": 60}, {"measurement": "Plant response rating, Ryegrass, Italian", "setting": "Italian ryegrass; [2]", "value": 40}, {"measurement": "Plant response rating, Ryegrass, Italian", "setting": "Italian ryegrass; [4]", "value": 35}]}]}
